Where two headings read alike, the source gives them in different places.
Tests used:
HAdV5-GFP = assay: Time of addition assay; format: cell-based, HAdV-5; conditions: for inhibition at 0.78 µM: FIG. 10
Procedure: (§1) Time of Addition Curve Study. […] Parallel samples of HAdV-5 were incubated with or without the selected derivatives on ice for 1 h. […] The derivatives were added at the indicated time points before or during this incubation. After a total of 2 h at 37° C., cells were incubated for an additional 48 h at 37° C. and 5% CO2 before being analyzed for GFP expression using the Typhoon 9410 imager (GE Healthcare Life Sciences) as above.
as §1, with “Assay.” for “Curve Study.”
as §1, with “Assay.” for “Curve Study.”, “compounds” for “derivatives”, “Compounds 153 and 161” for “The derivatives”

HAdV5 = assay: HAdV-mediated endosome disruption (α-sarcin co-delivery assay); format: cell-based, HAdV-5; conditions: FIG. 11; virus below 12 ng; similar to ts1 mutant
HAdV-5 = assay: Thermostability assay (HAdV capsid uncoating); format: cell-based; conditions: FIG. 12; 50 μM, 24 h post-infection
Source text: The studies described above delineate the step of infection that is targeted by 161; however, the precise molecular mechanism involved in its antiviral activity remained to be established. One alternative mode of action was that 161 could block HAdV-mediated lysis of the endosome by stabilizing the virus capsid, thereby preventing uncoating. Indeed, human defensins and neutralizing antibodies have been previously shown to act through this mechanism (Smith et al., Cell Host Microbe, 2008, 3, 11-19). To determine whether 161 impacts HAdV uncoating, we used a thermostability assay that mimics virus disassembly in the endosome, which was previously described by Wiethoff et al., (Wiethoff et al., J. Virol. 2005, 79, 1992-2000), with a few modifications. In this assay, temperatures above 48° C. promote selective removal of the virus vertex region. HAdV-5 was incubated with or without 50 μM concentrations of 161 at temperatures from 37° C. to 52° C. and then added to cells to evaluate the viability of the viruses. […] Upon heating HAdV-5 to 48° C. or above, in those non-treated with compound 161, there was no GFP expression 24 h post-infection.

A549 cells = assay: Cytotoxicity assay (AlamarBlue); conditions: read-out: CC50 (μM), cytotoxic concentration 50%; A549 cell line, 48 h
Procedure: (§2) Cytotoxicity Assay. The cytotoxicity of the compounds was analyzed by commercial kit AlamarBlue® (Invitrogen, Ref. DAL1025). A549 cells at a density of 5×10^3 cells per well in 96-well plates were seeded. […] Cells were then incubated at 37° C. for 48 h following the kit protocol. The cytotoxic concentration 50 (CC50) value was obtained using the statistical package GraphPad Prism. This assay was performed in duplicate.

[1] = Cytotoxicity assay (AlamarBlue); conditions: human, A549 cells
Procedure: as §2

[2] = Maximum tolerated dose (MTD); conditions: female, Syrian, hamster, in vivo, ip
Procedure: Maximum tolerated dose (MTD). […] Before dosing, compounds were diluted in 10% DMSO, 10% Cremophor EL and 80% sodium chloride physiological solution. […] At day 14 animals were sacrificed with a lethal dose of thiopental. All inoculations were done via intraperitoneal.

HAdV = assay: Combination study (Chou-Talalay, CalcuSyn) in plaque assay; format: cell-based
Source text: Synergistic Activity of Selected Derivatives. […] To assess this hypothesis, we conducted a combination study based on the Chou-Talalay method for drug combination using the CalcuSyn software (Chou, and Talalay, Adv. Enzyme Regul. 1984, 22, 27-55; Matthews et al., PLoS One. 2017, 12, e0173303) using those compounds with lower IC50 in the plaque assay and higher SI, compound 87 from this work and compounds 17 (JMX0312), 58 (JMX0281) from our first library of derivatives. The constant ratio for each combination was selected based on the IC50 values for each drug.
Synergistic Activity of Selected Compounds. […] To evaluate, a combination study was conducted based on the Chou-Talalay method for drug combination using the CalcuSyn software. The constant ration for each combination was selected based on the IC50 values for each drug.

HCMV = HCMV DNA quantification by real-time PCR; format: cell-based, human cytomegalovirus; conditions: HFF cells, 72 h, 10-fold plaque IC50 (niclosamide 5 μM)
Procedure: HCMV DNA Quantification by Real-Time PCR. […] Then, cells were incubated for 72 h at 37° C. and 5% CO2 and HCMV DNA was purified from the cell lysate using the QIAamp DNA Mini Kit (Qiagen, Valencia, Calif.) following the manufacturer's instructions. Real-time PCR primers, mixtures and protocols were the same as previously reported (Sanchez-Cespedes et al., J. Med. Chem. 2016, 59, 5432-5448).

[3] = 0 h, FIG. 2, read-out: inhibition of HAdV infection after addition at the moment of the infection (0 min)
[4] = combination 17 & 58 (1:2.5), read-out: IC50 combination
[5] = combination 17 & 87 (1:1.5), read-out: IC50 combination
[6] = derivative alone, read-out: IC50 Single
[7] = combination 87 & 58 (1:1.7), read-out: IC50 combination

Row | SMILES | CC50 (A549 cells) [µM] | CC50 at 48 h [1] [µM] | inhibition at 10 µM (HAdV5-GFP; [3]) [%] | MTD at 14 days [2] [mg/kg] | IC50 (HAdV; [4]) [µM] | IC50 (HAdV; [5]) [µM] | IC50 (HAdV; [6]) [µM] | IC50 (HAdV; [7]) [µM] | further results
1 | O=C(NCC1CCCCC1)c1cc(Cl)ccc1O [Compound 161, 5-Chloro-N-(cyclohexylmethyl)-2-hydroxybenzamide] | – | – | – | – | – | – | – | – | inhibition at 0.78 µM (HAdV5-GFP; 0 h, read-out: inhibitory activity at 0 min post-infection): 95.3%; inhibition at 0.78 µM (HAdV5-GFP; 20 min, read-out: inhibitory activity at 20 min p.i.): 30.7%; HAdV-mediated endosome lysis (HAdV5): prevented HAdV-mediated endosome lysis; GFP expression of viruses heated to 48° C. (HAdV-5): significant levels of GFP expression; GFP expression of viruses heated to 52° C. (HAdV-5): some residual expression
2 | O=C(Nc1ccc([N+](=O)[O-])cc1F)c1cc(Cl)ccc1O [Compound 11, 5-Chloro-N-(2-fluoro-4-nitrophenyl)-2-hydroxybenzamide] | 10.9 | – | – | – | – | – | – | – | loss of inhibition when added between 20 and 40 p.i. (HAdV5-GFP; FIG. 2, 5 μM): 34%
3 | O=C(Nc1cc(F)cc(C(F)(F)F)c1)c1cc(Cl)ccc1O [Compound 17, 5-Chloro-N-(3-fluoro-5-(trifluoromethyl)phenyl)-2-hydroxybenzamide] | – | 120 ± 33.6 | < 50 | 12.5 | 0.1 ± 0.01 | 0.09 | 0.18 ± 0.01 | – | –
4 | O=C(N[C@H](Cc1ccccc1)C(=O)Nc1ccc([N+](=O)[O-])cc1Cl)c1cc(Cl)ccc1O [Compound 60, (R)-5-Chloro-N-(1-((2-chloro-4-nitrophenyl)amino)-1-oxo-3-phenylpropan-2-yl)-2-hydroxybenzamide] | 77.9 | – | – | – | – | – | – | – | inhibition at 10 µM (HAdV5-GFP; 20 min, read-out: inhibition of HAdV infection when added after 20 min p.i., FIG. 2): < 50%
5 | CC1(Nc2ccc(NC(=O)c3cc(Cl)ccc3O)c(Cl)c2)CCCC1 [Compound 87, 5-Chloro-N-(2-chloro-4-((1-methylcyclopentyl)amino)phenyl)-2-hydroxybenzamide] | 157 | – | – | 150 | – | 0.14 | 0.27 ± 0.16 | 0.3 ± 0.02 | decrease of total HCMV DNA compared to the DMSO control (HCMV): no significant inhibition
6 | CC(C)[C@H](NC(=O)c1cc(Cl)ccc1O)C(=O)Nc1ccc([N+](=O)[O-])cc1Cl [Compound 58, (S)-5-Chloro-N-(1-((2-chloro-4-nitrophenyl)amino)-3-methyl-1-oxobutan-2-yl)-2-hydroxybenzamide] | – | 200 | < 50 | 50 | 0.25 ± 0.02 | – | 0.45 ± 0.06 | 0.5 ± 0.04 | –
